Each block holds one compound with its values, some of them ahead of it. Calls of active or inactive are those of the source. The rule behind the calls is not given here.
Key:
Mus musculus [1] = organism: Mus musculus; test: Binding affinity to beta amyloid plaques in brain sections of TgC57 transgenic mouse transfected with APP and PS1 double mutant after 10 mins using thioflavin-S stain; format: tissue-based
[2] = Displacement of [125I]TZDM from amyloid beta (1 to 40) aggregates after 2 hrs
[3] = Displacement of [125I]TZDM from amyloid beta (1 to 42) aggregates after 2 hrs
Mus musculus [4] = organism: Mus musculus; test: Binding affinity to beta amyloid plaques in brain sections of TgC57 transgenic mouse transfected with APP and PS1 double mutant after 30 mins by autoradiography; format: tissue-based; conditions: tested as the 125I-labelled form
Mus musculus [5] = organism: Mus musculus; test: Binding affinity to beta amyloid plaques in brain sections of TgC57 transgenic mouse transfected with APP and PS1 double mutant after 30 mins by autoradiography in the presence of thioflavin-T; format: tissue-based; conditions: tested as the 125I-labelled form
[6] = Binding affinity to amyloid beta (1 to 42) aggregates after 2 hrs by saturation binding method
[7] = Binding affinity to amyloid beta (1 to 40) aggregates after 2 hrs by saturation binding method
Muscle tissue [8] = test: Biodistribution in muscle of Kunming mouse at 1 uCi, iv after 60 mins by gamma counting; format: ADME, organism-based; conditions: in vivo, 1 h
Muscle tissue [9] = test: Biodistribution in muscle of Kunming mouse at 1 uCi, iv after 120 mins by gamma counting; format: ADME, organism-based; conditions: in vivo, 2 h
Muscle tissue [10] = test: Biodistribution in muscle of Kunming mouse at 1 uCi, iv after 240 mins by gamma counting; format: ADME, organism-based; conditions: in vivo, 4 h
[11] = Partition coefficient, log D in n-octanol/0.05 M phosphate buffer at pH 7.4; format: physicochemical
Blood [12] = test: Biodistribution in blood of Kunming mouse at 1 uCi, iv after 30 mins by gamma counting; format: ADME, organism-based; conditions: in vivo, 0.5 h
Blood [13] = test: Biodistribution in blood of Kunming mouse at 1 uCi, iv after 2 mins by gamma counting; format: ADME, organism-based; conditions: in vivo
Blood [14] = test: Biodistribution in blood of Kunming mouse at 1 uCi, iv after 60 mins by gamma counting; format: ADME, organism-based; conditions: in vivo, 1 h
Blood [15] = test: Biodistribution in blood of Kunming mouse at 1 uCi, iv after 120 mins by gamma counting; format: ADME, organism-based; conditions: in vivo, 2 h
Blood [16] = test: Biodistribution in blood of Kunming mouse at 1 uCi, iv after 240 mins by gamma counting; format: ADME, organism-based; conditions: in vivo, 4 h
Brain [17] = test: Biodistribution in brain of Kunming mouse at 1 uCi, iv after 2 mins by gamma counting; format: ADME, organism-based; conditions: in vivo
Brain [18] = test: Biodistribution in brain of Kunming mouse at 1 uCi, iv after 30 mins by gamma counting; format: ADME, organism-based; conditions: in vivo, 0.5 h
Brain [19] = test: Biodistribution in brain of Kunming mouse at 1 uCi, iv after 60 mins by gamma counting; format: ADME, organism-based; conditions: in vivo, 1 h
Brain [20] = test: Biodistribution in brain of Kunming mouse at 1 uCi, iv after 120 mins by gamma counting; format: ADME, organism-based; conditions: in vivo, 2 h
Brain [21] = test: Biodistribution in brain of Kunming mouse at 1 uCi, iv after 240 mins by gamma counting; format: ADME, organism-based; conditions: in vivo, 4 h
Heart [22] = test: Biodistribution in heart of Kunming mouse at 1 uCi, iv after 2 mins by gamma counting; format: ADME, organism-based; conditions: in vivo
Heart [23] = test: Biodistribution in heart of Kunming mouse at 1 uCi, iv after 30 mins by gamma counting; format: ADME, organism-based; conditions: in vivo, 0.5 h
Heart [24] = test: Biodistribution in heart of Kunming mouse at 1 uCi, iv after 60 mins by gamma counting; format: ADME, organism-based; conditions: in vivo, 1 h
Heart [25] = test: Biodistribution in heart of Kunming mouse at 1 uCi, iv after 120 mins by gamma counting; format: ADME, organism-based; conditions: in vivo, 2 h
Heart [26] = test: Biodistribution in heart of Kunming mouse at 1 uCi, iv after 240 mins by gamma counting; format: ADME, organism-based; conditions: in vivo, 4 h
Liver [27] = test: Biodistribution in liver of Kunming mouse at 1 uCi, iv after 2 mins by gamma counting; format: ADME, organism-based; conditions: in vivo
Liver [28] = test: Biodistribution in liver of Kunming mouse at 1 uCi, iv after 30 mins by gamma counting; format: ADME, organism-based; conditions: in vivo, 0.5 h
Liver [29] = test: Biodistribution in liver of Kunming mouse at 1 uCi, iv after 60 mins by gamma counting; format: ADME, organism-based; conditions: in vivo, 1 h
Liver [30] = test: Biodistribution in liver of Kunming mouse at 1 uCi, iv after 120 mins by gamma counting; format: ADME, organism-based; conditions: in vivo, 2 h
Liver [31] = test: Biodistribution in liver of Kunming mouse at 1 uCi, iv after 240 mins by gamma counting; format: ADME, organism-based; conditions: in vivo, 4 h
Spleen [32] = test: Biodistribution in spleen of Kunming mouse at 1 uCi, iv after 2 mins by gamma counting; format: ADME, organism-based; conditions: in vivo
Spleen [33] = test: Biodistribution in spleen of Kunming mouse at 1 uCi, iv after 30 mins by gamma counting; format: ADME, organism-based; conditions: in vivo, 0.5 h
Spleen [34] = test: Biodistribution in spleen of Kunming mouse at 1 uCi, iv after 60 mins by gamma counting; format: ADME, organism-based; conditions: in vivo, 1 h
Spleen [35] = test: Biodistribution in spleen of Kunming mouse at 1 uCi, iv after 120 mins by gamma counting; format: ADME, organism-based; conditions: in vivo, 2 h
Spleen [36] = test: Biodistribution in spleen of Kunming mouse at 1 uCi, iv after 240 mins by gamma counting; format: ADME, organism-based; conditions: in vivo, 4 h
Lung [37] = test: Biodistribution in lung of Kunming mouse at 1 uCi, iv after 2 mins by gamma counting; format: ADME, organism-based; conditions: in vivo
Lung [38] = test: Biodistribution in lung of Kunming mouse at 1 uCi, iv after 30 mins by gamma counting; format: ADME, organism-based; conditions: in vivo, 0.5 h
Lung [39] = test: Biodistribution in lung of Kunming mouse at 1 uCi, iv after 60 mins by gamma counting; format: ADME, organism-based; conditions: in vivo, 1 h
Lung [40] = test: Biodistribution in lung of Kunming mouse at 1 uCi, iv after 120 mins by gamma counting; format: ADME, organism-based; conditions: in vivo, 2 h
Lung [41] = test: Biodistribution in lung of Kunming mouse at 1 uCi, iv after 240 mins by gamma counting; format: ADME, organism-based; conditions: in vivo, 4 h
Kidney [42] = test: Biodistribution in kidney of Kunming mouse at 1 uCi, iv after 2 mins by gamma counting; format: ADME, organism-based; conditions: in vivo
Kidney [43] = test: Biodistribution in kidney of Kunming mouse at 1 uCi, iv after 30 mins by gamma counting; format: ADME, organism-based; conditions: in vivo, 0.5 h
Kidney [44] = test: Biodistribution in kidney of Kunming mouse at 1 uCi, iv after 60 mins by gamma counting; format: ADME, organism-based; conditions: in vivo, 1 h
Kidney [45] = test: Biodistribution in kidney of Kunming mouse at 1 uCi, iv after 120 mins by gamma counting; format: ADME, organism-based; conditions: in vivo, 2 h
Kidney [46] = test: Biodistribution in kidney of Kunming mouse at 1 uCi, iv after 240 mins by gamma counting; format: ADME, organism-based; conditions: in vivo, 4 h
Stomach [47] = test: Biodistribution in stomach of Kunming mouse at 1 uCi, iv after 2 mins by gamma counting measured per organ; format: ADME, organism-based; conditions: in vivo
Stomach [48] = test: Biodistribution in stomach of Kunming mouse at 1 uCi, iv after 30 mins by gamma counting measured per organ; format: ADME, organism-based; conditions: in vivo, 0.5 h
Stomach [49] = test: Biodistribution in stomach of Kunming mouse at 1 uCi, iv after 60 mins by gamma counting measured per organ; format: ADME, organism-based; conditions: in vivo, 1 h
Stomach [50] = test: Biodistribution in stomach of Kunming mouse at 1 uCi, iv after 120 mins by gamma counting measured per organ; format: ADME, organism-based; conditions: in vivo, 2 h
Stomach [51] = test: Biodistribution in stomach of Kunming mouse at 1 uCi, iv after 240 mins by gamma counting measured per organ; format: ADME, organism-based; conditions: in vivo, 4 h
Muscle tissue [52] = test: Biodistribution in muscle of Kunming mouse at 1 uCi, iv after 2 mins by gamma counting; format: ADME, organism-based; conditions: in vivo
Muscle tissue [53] = test: Biodistribution in muscle of Kunming mouse at 1 uCi, iv after 30 mins by gamma counting; format: ADME, organism-based; conditions: in vivo, 0.5 h

Activity (Mus musculus [1]): Active | Ki [2]: 1.28 nM | Ki [3]: 0.21 nM
Structure (SMILES): COc1ccc2nc(-c3ccc(-c4ccc(Br)s4)s3)sc2c1

Ki [2]: 0.77 nM
Structure (SMILES): CNc1ccc(-c2nc3ccc(O)cc3s2)cc1 [PITTSBURGH COMPOUND B UNLABELLED]

Activity (Mus musculus [1]): Active | Activity (Mus musculus [4]): Active | Activity (Mus musculus [5]): inactive | Ki [2]: 0.61 nM | Ki [3]: 0.11 nM
Structure (SMILES): COc1ccc2nc(-c3ccc(-c4ccc(I)s4)s3)sc2c1

Activity (Mus musculus [1]): Active | Ki [2]: 3.94 nM | Ki [3]: 4.64 nM
Structure (SMILES): c1csc(-c2ccc(-c3nc4ccccc4s3)s2)c1

Ki [6]: 0.13 nM | Ki [7]: 0.09 nM
Structure (SMILES): CN(C)c1ccc(-c2nc3ccc([125I])cc3s2)cc1

Drug uptake (Muscle tissue [8]): 1.47 % ID/g | Drug uptake (Muscle tissue [9]): 1.23 % ID/g | Drug uptake (Muscle tissue [10]): 0.87 % ID/g | logD [11]: 3.65 | Drug uptake (Blood [12]): 2.12 % ID/g | Drug uptake (Blood [13]): 9.02 % ID/g | Drug uptake (Blood [14]): 1.96 % ID/g | Drug uptake (Blood [15]): 1.76 % ID/g | Drug uptake (Blood [16]): 1.36 % ID/g | Drug uptake (Brain [17]): 3.42 % ID/g | Drug uptake (Brain [18]): 1.08 % ID/g | Drug uptake (Brain [19]): 0.53 % ID/g | Drug uptake (Brain [20]): 0.51 % ID/g | Drug uptake (Brain [21]): 0.5 % ID/g | Drug uptake (Heart [22]): 4.39 % ID/g | Drug uptake (Heart [23]): 2.49 % ID/g | Drug uptake (Heart [24]): 2.65 % ID/g | Drug uptake (Heart [25]): 1.5 % ID/g | Drug uptake (Heart [26]): 1.31 % ID/g | Drug uptake (Liver [27]): 53.64 % ID/g | Drug uptake (Liver [28]): 39.81 % ID/g | Drug uptake (Liver [29]): 29.12 % ID/g | Drug uptake (Liver [30]): 22.47 % ID/g | Drug uptake (Liver [31]): 13.82 % ID/g | Drug uptake (Spleen [32]): 12.75 % ID/g | Drug uptake (Spleen [33]): 6.78 % ID/g | Drug uptake (Spleen [34]): 8.61 % ID/g | Drug uptake (Spleen [35]): 3.5 % ID/g | Drug uptake (Spleen [36]): 2.07 % ID/g | Drug uptake (Lung [37]): 17.51 % ID/g | Drug uptake (Lung [38]): 8.04 % ID/g | Drug uptake (Lung [39]): 8.01 % ID/g | Drug uptake (Lung [40]): 5.76 % ID/g | Drug uptake (Lung [41]): 3.72 % ID/g | Drug uptake (Kidney [42]): 4 % ID/g | Drug uptake (Kidney [43]): 7.22 % ID/g | Drug uptake (Kidney [44]): 8.52 % ID/g | Drug uptake (Kidney [45]): 7.33 % ID/g | Drug uptake (Kidney [46]): 5.76 % ID/g | Drug uptake (Stomach [47]): 0.39 %ID | Drug uptake (Stomach [48]): 2.47 %ID | Drug uptake (Stomach [49]): 4.05 %ID | Drug uptake (Stomach [50]): 4.39 %ID | Drug uptake (Stomach [51]): 3.24 %ID | Drug uptake (Muscle tissue [52]): 0.65 % ID/g | Drug uptake (Muscle tissue [53]): 1.01 % ID/g
Structure (SMILES): [125I]c1ccc2nc(-c3ccc(-c4cccs4)s3)sc2c1

— ChEMBL document CHEMBL1156337, “Synthesis and evaluation of novel benzothiazole derivatives based on the bithiophene structure as potential radiotracers for beta-amyloid plaques in Alzheimer's disease” (Bioorg Med Chem, 2010)
